From patent publication US20240076297A1, “ADENOSINE A2A AND A2B RECEPTOR DUAL ANTAGONISTS FOR IMMUNO-ONCOLOGY” (Merck Sharp & Dohme LLC, priority 2020, published 2024)

These compounds were tested against human A2A adenosine receptor (Homo sapiens (Human), UniProt P29274) (assay: A2A binding affinity using radioligand binding, Method (A)). Conditions: Method (A): filtration radioligand binding, [3H] SCH58261, membranes expressing human A2A.
Source text: Method (A) describes the procedure used to measure A2A binding affinity using radioligand binding. Method (B) describes the procedure used to measure A2A binding affinity using SPA technology. The method used to measure A2B binding affinity is also described below. The method used to determine the A2A IC50 value reported for each compound in the table is indicated next to the reported value. The A2B IC50 value measured using the A2B binding affinity assay is shown in the table next to the compound under the corresponding A2A value.
The A2A receptor affinity binding assay measured the amount of binding of a tritiated ligand with high affinity for the A2A adenosine receptor to membranes made from HEK293 or CHO cells recombinantly expressing the human A2A adenosine receptor, in the presence of varying concentrations of a compound of the invention. The data were generated using either filtration binding or a homogenous scintillation proximity assay (SPA).
Method (A): Measurement of A2A Binding Affinity Using Radioligand Binding
148 μL (5 μg/mL) membranes (Perkin Elmer, Cat. No. RBHA2aM400UA) and 2 μL compounds of the invention to be tested (test compound) were transferred to individual wells of a 96-well polypropylene assay plate and incubated for 15 to 30 min at room temperature. [^3H] SCH58261 ((7-(2-phenylethyl)-5-amino-2-(2-furyl)-pyrazolo-[4,3-e]-1,2,4-triazolo[1,5-c]pyrimidine)) was diluted in assay buffer (50 mM Tris pH 7.4, 10 mM MgCl2, 0.005% Tween20) to a concentration of 4 nM and 50 μL transferred to each well of the assay plate. To define total and non-specific binding, wells containing 1% DMSO and 1 μM ZM241385 (Tocris Bioscience, Cat. No. 1036) respectively, were also included. The assay plate was incubated at room temperature for 60 min with agitation. Using a FilterMate Harvester® (Perkin Elmer), the contents of the assay plate were filtered through a UniFilter-96® PEI coated plate (Perkin Elmer Cat. No. 6005274 or 6005277). Filtering was achieved by aspirating the contents of the assay plate for 5 sec, then washing and aspirating the contents three times with ice-cooled wash buffer (50 mM Tris-HCl pH 7.4, 150 mM NaCl) and allowing the vacuum manifold to dry the plate for 30 sec. The filter plate was incubated for at least 1 h at 55° C. and allowed to dry. The bottom of the filter plate was sealed with backing tape. 40 μL Ultima Gold™ (Perkin Elmer, Cat. No. 6013329) was added to each well of the filter plate and the top of the plate was sealed with TopSeal-A PLUS® clear plate seal (Perkin Elmer, Cat. No. 6050185). The plate was incubated for at least 20 min, and then the amount of radioactivity remaining in each well was determined using a TopCount® (Perkin Elmer) scintillation counter. After normalization to total and non-specific binding, the percent effect at each compound concentration was calculated. The plot of percent effect versus the log of compound concentration was analyzed electronically using a 4-parameter logistic fit based on the Levenberg-Marquardt algorithm to generate IC50 values.

Sequence of human A2A adenosine receptor (P29274 whole entry): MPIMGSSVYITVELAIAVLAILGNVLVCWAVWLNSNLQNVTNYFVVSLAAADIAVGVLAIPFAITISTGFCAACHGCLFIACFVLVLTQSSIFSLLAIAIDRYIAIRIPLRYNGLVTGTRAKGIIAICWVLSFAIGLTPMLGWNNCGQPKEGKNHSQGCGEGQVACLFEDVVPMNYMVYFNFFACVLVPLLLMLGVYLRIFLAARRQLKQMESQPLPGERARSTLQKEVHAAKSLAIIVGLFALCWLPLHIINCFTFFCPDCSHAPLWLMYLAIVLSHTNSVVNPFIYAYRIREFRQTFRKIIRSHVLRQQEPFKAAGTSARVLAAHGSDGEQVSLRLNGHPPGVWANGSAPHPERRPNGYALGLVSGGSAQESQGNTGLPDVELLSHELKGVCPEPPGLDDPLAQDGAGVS

Row | Compound | IC50
1 | COc1cccc2c1nc(N)n1nc(CC3CC3c3ccc(C(C)(C)N)cc3)nc21 (single isomer, unassigned) [Example 8.5A, 2-(((1S,2R or 1R,2S)-2-(4-(2-aminopropan-2-yl)phenyl)-cyclopropyl)methyl)-7-methoxy-[1,2,4]triazolo-[1,5-c]quinazolin-5-amine] | 4.7 nM
2 | COc1cccc2c1nc(N)n1nc(CC3CC3c3ccc(C(C)(C)O)cc3)nc21 (single isomer, unassigned) [Example 8.6B, 2-(4-((1R,2S or 1S,2S)-2-((5-amino-7-methoxy-[1,2,4]triazolo-[1,5-c]quinazolin-2-yl)methyl)cyclopropyl)phenyl)propan-2-ol] | 0.3 nM
3 | CN=S(=O)(CCc1nc2c3cccc(OC)c3nc(N)n2n1)C1CC1 (single isomer, unassigned) [Example 10.3A, (S or R)-(2-(5-amino-7-methoxy-[1,2,4]triazolo[1,5-c]quinazolin-2-yl)ethyl)(cyclopropyl)(methylimino)-l6-sulfanone] | 1.4 nM
4 | CN=S(=O)(CCc1nc2c3cccc(OC)c3nc(N)n2n1)C1CC1 (single isomer, unassigned) [Example 10.3B, (R or S)-(2-(5-amino-7-methoxy-[1,2,4]triazolo[1,5-c]quinazolin-2-yl)ethyl)(cyclopropyl)(methylimino)-λ^6-sulfanone] | 3.7 nM
5 | COc1cccc2c1nc(N)n1nc(CCS(=N)(=O)C3CC3)nc21 (single isomer, unassigned) [Example 11.1A, (S or R)-(2-(5-amino-7-methoxy-[1,2,4]triazolo[1,5-c]quinazolin-2-yl)ethyl)(cyclopropyl)(imino)-26-sulfanone] | 1.2 nM
6 | COc1cccc2c1nc(N)n1nc(CC(C)(CO)CO)nc21 [Example 3.2, 2-((5-amino-7-methoxy-[1,2,4]triazolo[1,5-c]quinazolin-2-yl)methyl)-2-methylpropane-1,3-diol] | 10.9 nM

Further lines, results first:

Row | IC50 | Compound
7 | 3.4 nM | COc1cccc2c1nc(N)n1nc(CCS(=N)(=O)C3CC3)nc21 (single isomer, unassigned) [Example 11.1B, (R or S)-(2-(5-amino-7-methoxy-[1,2,4]triazolo[1,5-c]quinazolin-2-yl)ethyl)(cyclopropyl)(imino)-λ^6-sulfanone]
8 | 5.7 nM | COc1cc(F)cc2c1nc(N)n1nc(CCC3CCn4c(cnc4C4(C(F)(F)F)CC4)C3)nc21 (single isomer, unassigned) [Example 12.3A, (S or R)-9-fluoro-7-methoxy-2-(2-(3-(1-(trifluoromethyl)cyclopropyl)-5,6,7,8-tetrahydroimidazo[1,5-a]pyridin-7-yl)ethyl)-[1,2,4]triazolo[1,5-c]quinazolin-5-amine]
9 | 6.7 nM | COc1cc(F)cc2c1nc(N)n1nc(CCC3CCn4c(cnc4C4(C(F)(F)F)CC4)C3)nc21 (single isomer, unassigned) [Example 12.3B, (R or S)-9-fluoro-7-methoxy-2-(2-(3-(1-(trifluoromethyl)cyclopropyl)-5,6,7,8-tetrahydroimidazo[1,5-a]pyridin-7-yl)ethyl)-[1,2,4]triazolo[1,5-c]quinazolin-5-amine]
10 | 1.1 nM | COc1cc(F)cc2c1nc(N)n1nc(CCC3(O)CCc4c(nnn4C4CC(F)(F)C4)C3)nc21 (single isomer, unassigned) [Example 14.3A, (S or R)-5-(2-(5-amino-9-fluoro-7-methoxy-[1,2,4]triazolo[1,5-c]quinazolin-2-yl)ethyl)-1-(3,3-difluorocyclobutyl)-4,5,6,7-tetrahydro-1H-benzo[d][1,2,3]triazol-5-ol]
11 | 3.4 nM | COc1cc(F)cc2c1nc(N)n1nc(CCC3(O)CCc4c(nnn4C4CC(F)(F)C4)C3)nc21 (single isomer, unassigned) [Example 14.3B, (R or S)-5-(2-(5-amino-9-fluoro-7-methoxy-[1,2,4]triazolo[1,5-c]quinazolin-2-yl)ethyl)-1-(3,3-difluorocyclobutyl)-4,5,6,7-tetrahydro-1H-benzo[d][1,2,3]triazol-5-ol]
